Like-named read-outs stand apart in the source and are kept apart here.
Columns and labels:
[1] = test system: ex vivo expanded CTCs from PC patients and LNCaP and C4-2B cells from mouse bone marrow, 3-D spheroids; experiment: Viability/apoptosis of PC CTCs and bone marrow-derived LNCaP and C4-2B grown as 3-D spheroids; type: cell-based, human
Method: (§1) Immortalized PC cell lines (PC3, LNCaP, C4-2, C4-2B, 22Rv1) and 3-D spheroid growth of mouse bone marrow-derived LNCaP and C4-2B and ex vivo expanded CTCs from patients were used. […] Induction of apoptosis was assessed by caspase 3/7 luminescent assay. Growth inhibitory effects were compared between 2-D and 3-D. Senescent luciferase-tagged LNCaP and C4-2B cells from mouse bone marrow regained growth potential when propagated in vitro as 3D spheroids. RPMI medium supplemented with 10% FBS and 1% penicillin/streptomycin was used to grow CTCs in vitro.

Resistant C4-2B PC cells = experiment: Growth inhibition of AA/EZ resistant C4-2B PC cells cultured as 2D monolayer; type: cell-based; settings: Homo sapiens
Naive C4-2B PC cells = experiment: Growth inhibition of naive C4-2B PC cells cultured as 2D monolayer; settings: for IC50: Homo sapiens
[2] = test system: PC cell lines (PC3, LNCaP, C4-2, C4-2B, 22Rv1); experiment: Viability of immortalized prostate cancer cell lines grown as 2D monolayers; type: cell-based, human; settings: 72 hours of drug exposure
Method: as §1

microtubule = experiment: Microtubule dynamics in PC cells; type: cell-based
Method: Microtubule dynamics are measured in NIR-SM or SM treated PC cells in the presence or absence of DT according to published protocols. Microtubule dynamics are assessed by fluorescence imaging methods, where immunolabeled tubulin is the readout for measurements of polarized forced generation, contractility and response to substrate stiffness measured in the presence of DT using established protocols. […] We test other agents, such as nocodazole and vincristine, which without being bound by theory we hypothesize block the polymerization of tubulin into microtubules, and cold temperature that can cause a rapid depolymerization of microtubules. With these controls, we determine if NIR-SM or SM may differ in enhancing the activity of DT in promoting microtubule polymerization in PC cells.

[3] = test system: renal (ACHN, o-786, SKRC, Caki-1), breast (MCF-7), lung (H358), liver (HepG2), prostate (PC3, LNCaP, C4-2B), pancreatic (MIAPaCa II) and glioblastoma (U87) …; experiment: Cell inhibition by NIR-783 dye in a cancer cell line panel; type: cell-based; settings: in vitro
[4] = test system: ovarian tumor cells OV90 and OVCA433; settings: in vitro
[5] = test system: PC cells, 3D spheroids vs 2D monolayer; settings: average
[6] = test system: ex vivo propagated CTCs from human PC patients (3D spheroids); experiment: Cytotoxicity in ex vivo propagated prostate cancer CTCs grown as 3D spheroids
[7] = test system: ex vivo propagated CTCs from human PC patients (3D spheroids)
[8] = test system: pancreatic and breast cancer CTCs; settings: 3-D spheroids
PDAC tumors = settings: imaged 3 days after i.p. administration
PC3 tumor xenograft = settings: PC3 tumors in mouse; listed as dye-simvastatin
[9] = test system: Ramos, a B-cell lymphoma, 3-D spheroids; experiment: Cytotoxicity in Ramos B-cell lymphoma 3-D spheroids; type: cell-based
[10] = test system: Prostate circulating tumor cells CTC 864; settings: 4 μM, 24 hours; vs control, docetaxel 1.25 μM, abiraterone acetate 3.125 μM
human PC cell lines = experiment: IC50 in commonly used human PC cell lines; type: cell-based
[11] = test system: B-cell lymphoma cell lines Namalwa, Raji, CA46, Ramos, Daudi; experiment: Growth and viability of B-cell Burkitt's lymphoma cell lines, MTT, 72 h; type: cell-based, human; settings: 72 h exposure; range over all BL cell lines tested
Method: (§2) 5,000 cells/well renal cancer cells and 10,000 cells/well lymphoma cells are seeded in 96 well plates in 100 microliter medium/per well for 24 h. […] Renal cancer cells are fixed with 3.7% paraformaldehyde for 15 minutes and are stained with Crystal violet solution (0.5% in 25% methanol) for 30 minutes. After rinsing with water cell layers are dried and decolorized with Sorenson citrate with shaking for 20 minutes. […] Lymphoma cell growth was evaluated using MTT and cells are incubated for 4 hours.
(§3) Induction of apoptosis was assessed using a caspase 3/7 luminescent assay. Cleavage of apoptosis substrates and inhibition of c-myc was determined by western blotting, with images quantified by ImageJ after normalization with GAPDH. […] Formalin-fixed tumor and kidney sections were stained with hematoxylin and esosin and kidney sections scored using a semiquantitative scale designed to assess AKI-associated tubular injury (tubular epithelial cell loss, necrosis, tubular epithelial simplification, intratubular debris, and casts).

bcl-2 = bcl-2 western blot in BL cell lines; type: cell-based, human
[12] = test system: RCC cell lines Caki-1, o-786, ACHN and SK-RC; experiment: Growth and viability of RCC cell lines, 72 h exposure (crystal violet); type: cell-based, human; settings: range over all RCC cell lines tested
Method: as §2
Apoptosis was assessed by caspase 3/7 luminescent assay. Cleavage of apoptosis substrates was determined by western blotting. […] Formalin-fixed tumor, liver and kidney sections were stained with H&E and kidney sections were scored semiquantitativey.

[13] = test system: Namalwa and Raji cell lines; experiment: Apoptosis by caspase 3/7 luminescent assay and western blot in BL cell lines; type: cell-based, human; settings: 24 hours of drug exposure, 8, 16, 32 μM
Method: Namalwa cells are cultured in RPMI 1640, 10% fetal bovine serum, 1% PenStrep, and placed in a humidified atmosphere containing 5% CO2 at 37° C. 10,000-15,000 cells/well are seeded in 96 white wall well plates in 100 microliter medium/per well for 24 h. […] 100 microliters of Caspase-Glo 3/7 assay is added and luminescence is then read. Caki-1 cells are cultured in RPMI 1640, 10% fetal bovine serum, 1% PenStrep, and placed in a humidified atmosphere containing 5% CO2 at 37° C. 5,000 cells/well are seeded in 96 white wall well plates in 100 microliter medium/per well for 24 h. […] 100 microliters of Caspase-Glo 3/7 assay is added and luminescence is then read.

c-myc = c-myc western blot in BL cell lines; type: cell-based, human
mouse kidneys = experiment: Kidney histopathology, AKI-associated tubular injury score, Namalwa-bearing mice; settings: i.p. 3 times a week for 4 weeks
Method: FIG. 27 depicts in accordance with various embodiments of the invention, formalin-fixed kidney sections are stained with hematoxylin and esosin and scored using a semiquantitative scale designed to assess AKI-associated tubular injury (tubular epithelial cell loss, necrosis, tubular epithelial simplification, intratubular debris, and casts).
as §3

Namalwa tumors = experiment: Namalwa xenograft growth in mice; type: in vivo, mouse; settings: equimolar doses i.p. 3 times a week

CC(=O)O[C@H]1CC[C@@]2(C)C(=CC[C@@H]3[C@@H]2CC[C@]2(C)C(c4cccnc4)=CC[C@@H]32)C1 [AA, abiraterone acetate]
sensitivity of cells grown as 3-D spheroids [1]: resistance with no signs of apoptosis
IC50 (Resistant C4-2B PC cells; NIR-SM 0 μM): 13.3 µM
IC50 (Resistant C4-2B PC cells; NIR-SM 0.25 μM): 3.32 µM
IC50 (Naive C4-2B PC cells; read-out: AA IC50, Naive C4-2B, 2D monolayer, NIR-SM 0 μM): 6.79 µM
IC50 (Naive C4-2B PC cells; read-out: AA IC50, Naive C4-2B, 2D monolayer, NIR-SM 0.25 μM): 1.65 µM
sensitivity of cells grown as 2D monolayers [2]: sensitive

CC(=O)O[C@@]12CO[C@@H]1C[C@H](O)[C@@]1(C)C(=O)[C@H](O)C3=C(C)[C@@H](OC(=O)[C@H](O)[C@@H](NC(=O)OC(C)(C)C)c4ccccc4)C[C@@](O)([C@@H](OC(=O)c4ccccc4)[C@H]21)C3(C)C [DT, docetaxel]
sensitivity of cells grown as 3-D spheroids [1]: resistance with no signs of apoptosis
effect on microtubules (microtubule): enhances microtubule polarization and inhibits shrinkage of microtubule length
sensitivity of cells grown as 2D monolayers [2]: sensitive

CNC(=O)c1ccc(N2C(=S)N(c3ccc(C#N)c(C(F)(F)F)c3)C(=O)C2(C)C)cc1F [EZ, enzalutamide]
sensitivity of cells grown as 3-D spheroids [1]: resistance with no signs of apoptosis
sensitivity of cells grown as 2D monolayers [2]: sensitive

CC1(C)C(=CC=C2CCCC(C=CC3=[N+](CCCCS(=O)(=O)[O-])c4ccccc4C3(C)C)=C2Cl)N(CCCCS(=O)(=O)[O-])c2ccccc21.[Na+] [NIR-783]
cell inhibition effect [3]: does not exhibit significant cell inhibition effect

CCC(C)(C)C(=O)O[C@H]1C[C@@H](C)C=C2C=C[C@H](C)[C@H](CC[C@@H]3C[C@@H](OC(=O)CCCCCN4/C(=C/C=C5\CCCC(/C=C/C6=[N+](CCCCS(=O)(=O)[O-])c7ccccc7C6(C)C)=C5Cl)C(C)(C)c5ccccc54)CC(=O)O3)[C@H]21 [NIR-SM, DZ-1-Simvastatin Conjugate]
sensitivity of cell growth relative to unconjugated drug [4]: more sensitive
accumulation in PC 3D spheroids higher than in PC 2D monolayer [5]: 5 fold
IC50 lower than SM [6]: about 4 fold
effectiveness relative to unconjugated simvastatin [6]: more effective than unconjugated simvastatin
IC50 [7]: 5 µM
enhancement of the cytotoxicity exerted by AA, EZ or DT [7]: 21-122 fold
synergy with enzalutamide (Enz) and abiraterone acetate (Abi) growth inhibition (C4-2B cells): synergizes the growth inhibitory effects of anti-androgens
synergy with docetaxel growth inhibition (C4-2B cells; conjugate at 2 uM): synergizes the growth inhibitory effects of docetaxel
effectiveness relative to unconjugated simvastatin [8]: more effective than unconjugated simvastatin
sensitization of the cytotoxic effects of AA and EZ (Naive C4-2B PC cells; NIR-SM 0.25 μM, both control and AA/EZ resistant PC cells in the C4-2B background): 4-5 fold
tumor targeting (PDAC tumors): targets specifically PDAC tumors
accumulation in tumor (PC3 tumor xenograft): selective accumulation
potency relative to unconjugated simvastatin [9]: about 5 fold
synergized cisplatin cytotoxicity [9]: over 190 fold
rate of apoptosis (caspase 3/7) [10]: significantly higher rate of apoptosis
effect on the growth of PC cells (human PC cell lines; 0.25 μM): marginal effects

CCC(C)(C)C(=O)O[C@H]1C[C@@H](C)C=C2C=C[C@H](C)[C@H](CC[C@@H]3C[C@@H](O)CC(=O)O3)[C@H]21 [SM, Simvastatin, reference compound]
IC50 ([6]; ex vivo propagated CTCs): 20 µM
IC50 (human PC cell lines; Homo sapiens, range over cell lines, dependent upon the cell types): 1 to 7 µM

N.N.[Cl][Pt][Cl] [cisplatin, reference compound]
IC50 [11]: > 64 µM
bcl-2 expression (bcl-2): no significant changes
IC50 [12]: > 64 µM
induction of apoptosis (caspase 3/7; caspase 9, caspase 3 and PARP) ([13]; listed as Cis): no sign of increased apoptotic activity

Nc1ccn([C@@H]2O[C@H](CO)[C@@H](O)C2(F)F)c(=O)n1 [gemcitabine]
sensitivity of cells grown as 2D monolayers [2]: sensitive

DZ-1-cisplatin [NIR dye-cisplatin]
c-myc expression (c-myc): downregulates
bcl-2 expression (bcl-2): no significant changes
kidney toxicity (histopathology) (mouse kidneys): preserved the integrity and normal morphology of mouse kidneys
induction of apoptosis (caspase 3/7; caspase 9, caspase 3 and PARP) [13]: induces apoptosis
tumor growth inhibition (Namalwa tumors): tumor growth inhibition and apoptotic nuclear lobulation/fragmentation

— patent publication US20190269801A1 (CEDARS-SINAI MEDICAL CENTER, priority 2016, published 2019)
